From the NIST ThermoML archive (doi:10.1016/j.jct.2004.10.011)
Numbers after ± are expanded uncertainties.

Test: xn = mol fraction of the nth substance listed
Details: 318.15 K, Liquid, Vibrating tube method

CCC(=O)c1ccccc1 [ethyl phenyl ketone] + Cc1ccccc1
mass density [kg/m3]
Details | x2 = 0 | x2 = 0.1048 | x2 = 0.2025 | x2 = 0.3006 | x2 = 0.3991 | x2 = 0.4998 | x2 = 0.6004 | x2 = 0.7036 | x2 = 0.8028 | x2 = 0.902
100 kPa | 988.3 ± 0.56 | 976.2 ± 0.51 | 965 ± 0.47 | 952.8 ± 0.43 | 940 ± 0.4 | 926.14 ± 0.37 | 911.27 ± 0.34 | 895.5 ± 0.32 | 879.2 ± 0.3 | 861.9 ± 0.3
2130 kPa | 989.6 ± 0.55 | 977.6 ± 0.51 | 966.4 ± 0.47 | 954.3 ± 0.43 | 941.4 ± 0.39 | 927.61 ± 0.36 | 912.78 ± 0.33 | 897 ± 0.31 | 880.8 ± 0.29 | 863.6 ± 0.29
4150 kPa | 990.9 ± 0.55 | 978.9 ± 0.51 | 967.7 ± 0.47 | 955.6 ± 0.43 | 942.8 ± 0.39 | 929.03 ± 0.36 | 914.26 ± 0.33 | 898.5 ± 0.31 | 882.4 ± 0.29 | 865.2 ± 0.29
6180 kPa | 992.1 ± 0.55 | 980.1 ± 0.51 | 969 ± 0.47 | 956.9 ± 0.43 | 944.1 ± 0.39 | 930.44 ± 0.36 | 915.7 ± 0.33 | 900 ± 0.31 | 883.9 ± 0.29 | 866.8 ± 0.29
8210 kPa | 993.3 ± 0.56 | 981.4 ± 0.51 | 970.2 ± 0.47 | 958.2 ± 0.43 | 945.5 ± 0.39 | 931.83 ± 0.36 | 917.14 ± 0.33 | 901.5 ± 0.31 | 885.4 ± 0.3 | 868.4 ± 0.29
10230 kPa | 994.6 ± 0.56 | 982.7 ± 0.51 | 971.5 ± 0.47 | 959.5 ± 0.43 | 946.8 ± 0.39 | 933.2 ± 0.36 | 918.57 ± 0.33 | 903 ± 0.31 | 886.9 ± 0.3 | 870 ± 0.29
11250 kPa | 995.2 ± 0.55 | 983.3 ± 0.51 | 972.1 ± 0.47 | 960.1 ± 0.43 | 947.5 ± 0.39 | 933.86 ± 0.36 | 919.25 ± 0.33 | 903.7 ± 0.31 | 887.7 ± 0.3 | 870.7 ± 0.29
12260 kPa | 995.8 ± 0.56 | 983.9 ± 0.51 | 972.8 ± 0.47 | 960.8 ± 0.43 | 948.1 ± 0.39 | 934.53 ± 0.36 | 919.93 ± 0.34 | 904.4 ± 0.32 | 888.4 ± 0.3 | 871.5 ± 0.3
14290 kPa | 997 ± 0.55 | 985.1 ± 0.51 | 974 ± 0.47 | 962 ± 0.43 | 949.4 ± 0.39 | 935.85 ± 0.36 | 921.32 ± 0.34 | 905.8 ± 0.32 | 889.8 ± 0.3 | 873 ± 0.3
16310 kPa | 998.1 ± 0.56 | 986.3 ± 0.51 | 975.2 ± 0.47 | 963.3 ± 0.43 | 950.7 ± 0.4 | 937.19 ± 0.36 | 922.68 ± 0.34 | 907.2 ± 0.32 | 891.3 ± 0.31 | 874.5 ± 0.3
18340 kPa | 999.3 ± 0.56 | 987.5 ± 0.51 | 976.4 ± 0.47 | 964.5 ± 0.43 | 952 ± 0.39 | 938.52 ± 0.36 | 924.03 ± 0.34 | 908.6 ± 0.32 | 892.7 ± 0.31 | 876 ± 0.3
20370 kPa | 1000.4 ± 0.56 | 988.7 ± 0.51 | 977.6 ± 0.47 | 965.7 ± 0.43 | 953.2 ± 0.4 | 939.75 ± 0.36 | 925.33 ± 0.34 | 909.9 ± 0.32 | 894.1 ± 0.31 | 877.4 ± 0.31
22390 kPa | 1001.6 ± 0.56 | 989.9 ± 0.51 | 978.8 ± 0.47 | 967 ± 0.43 | 954.5 ± 0.4 | 941.04 ± 0.36 | 926.66 ± 0.34 | 911.2 ± 0.32 | 895.5 ± 0.31 | 878.9 ± 0.31
24420 kPa | 1002.7 ± 0.56 | 991 ± 0.51 | 980 ± 0.47 | 968.1 ± 0.43 | 955.7 ± 0.39 | 942.28 ± 0.36 | 927.93 ± 0.34 | 912.5 ± 0.32 | 896.8 ± 0.31 | 880.3 ± 0.31
26450 kPa | 1003.8 ± 0.56 | 992.1 ± 0.51 | 981.1 ± 0.47 | 969.3 ± 0.43 | 956.8 ± 0.39 | 943.5 ± 0.36 | 929.18 ± 0.34 | 913.8 ± 0.32 | 898.2 ± 0.32 | 881.6 ± 0.31
28470 kPa | 1004.9 ± 0.56 | 993.3 ± 0.51 | 982.2 ± 0.47 | 970.5 ± 0.43 | 958 ± 0.4 | 944.7 ± 0.36 | 930.43 ± 0.34 | 915.1 ± 0.32 | 899.5 ± 0.31 | 883 ± 0.32
29490 kPa | 1005.5 ± 0.56 | 993.8 ± 0.51 | 982.8 ± 0.47 | 971.1 ± 0.43 | 958.6 ± 0.4 | 945.34 ± 0.37 | 931.09 ± 0.34 | 915.7 ± 0.33 | 900.1 ± 0.32 | 883.7 ± 0.32
30500 kPa | 1006 ± 0.56 | 994.4 ± 0.51 | 983.4 ± 0.47 | 971.6 ± 0.43 | 959.2 ± 0.4 | 945.93 ± 0.37 | 931.69 ± 0.34 | 916.4 ± 0.33 | 900.8 ± 0.32 | 884.3 ± 0.32
32530 kPa | 1007.1 ± 0.56 | 995.5 ± 0.51 | 984.5 ± 0.47 | 972.8 ± 0.43 | 960.4 ± 0.4 | 947.12 ± 0.37 | 932.92 ± 0.34 | 917.6 ± 0.33 | 902.1 ± 0.32 | 885.7 ± 0.32
34550 kPa | 1008.2 ± 0.56 | 996.6 ± 0.51 | 985.6 ± 0.47 | 973.9 ± 0.43 | 961.5 ± 0.4 | 948.29 ± 0.37 | 934.11 ± 0.34 | 918.8 ± 0.33 | 903.3 ± 0.32 | 887 ± 0.33
36580 kPa | 1009.2 ± 0.56 | 997.7 ± 0.51 | 986.7 ± 0.47 | 975 ± 0.43 | 962.7 ± 0.4 | 949.45 ± 0.37 | 935.3 ± 0.34 | 920 ± 0.33 | 904.6 ± 0.33 | 888.3 ± 0.33
38600 kPa | 1010.3 ± 0.56 | 998.7 ± 0.51 | 987.8 ± 0.47 | 976.1 ± 0.43 | 963.7 ± 0.39 | 950.58 ± 0.37 | 936.48 ± 0.34 | 921.2 ± 0.33 | 905.8 ± 0.32 | 889.5 ± 0.33
39620 kPa | 1010.8 ± 0.56 | 999.3 ± 0.51 | 988.3 ± 0.46 | 976.6 ± 0.42 | 964.3 ± 0.4 | 951.19 ± 0.36 | 937.08 ± 0.34 | 921.9 ± 0.33 | 906.4 ± 0.32 | 890.2 ± 0.32
